According to a melting point compilation (Tetko et al.; mined from patent text by program, amines drawn as free bases though some values may be those of a salt):

SMILES	melting point [°C]
CC(C)N(CCC(CCN(C(C)C)C(C)C)(C(N)=O)c1ccccc1)C(C)C	102 to 103
CCOC(=N)c1sc2ccc(Cl)cc2c1O	236
Cc1nc2c(-c3cccc(N4CCOCC4)c3)cnn2c(N)c1-c1cccc(Cl)c1	165 to 167
CCOC(=O)C(C)(C(=O)OCC)c1ccc(N)c(C(F)(F)F)c1	73 to 75
Cc1cc(Cl)ccc1OCC(=O)N1Cc2ccc(C(=O)CCc3ccccc3)n2Cc2ccccc21	130 to 134
COc1ccc2c(c1)CCC1CCNC(=O)C(CC(C)NC(C)C)=C21 (centres undefined)	118 to 126
O=C(c1ccccc1)C(O)O	85 to 85.5
COc1ccc(C(=O)N(C(=O)c2ccc(OC)cc2)c2nc3ccc(N(C)C)cc3c(NCc3ccco3)c2C#N)cc1	143
CCCCCCCCCCCCCCCCNc1ccc(C(=O)NCC(=O)OCC)cc1	97.5 to 99.5
COc1ccc(Cn2nc(-c3ccc(SC)cc3)c(-c3ccc(F)cc3)cc2=S)cc1	113
NS(=O)(=O)c1cc2ccncc2o1	199 to 201
CS(=O)(=O)c1ccc(-n2nc(C(F)(F)F)cc2-c2ccc(-c3cscn3)cc2)cc1CO	203 to 205
COc1cc(N)c(Cl)cc1C(=O)N[C@H]1CCN(CCNc2ncccc2C#N)C[C@H]1OC (relative stereo)	134
Cc1cc(C)c2ncc(NC(=O)c3cc(C(C)(C)C)c(O)c(C(C)(C)C)c3)c(-c3ccccc3Cl)c2c1	127 to 129
CCN(CC)C(=O)c1cc(-c2ccc(Cl)cc2)c2ccsc2c1	135
O=C(CNc1ccccc1)Nc1ccc(Cl)cc1C(=O)O	210 to 212
NC(=O)CNC(=O)c1cc(-c2cccc3cc(Cc4cc(F)cc(Cl)c4)sc23)ccn1	157 to 158
CN(C1=CC(=O)CC1)[C@@H]1c2cc(C#N)ccc2OC(C)(C)[C@H]1O (relative stereo)	271 to 274
C=C1CC2C(=CCC3(C)C2CC(C)C3(OC(C)=O)C(C)=O)C2(C)CCC(=O)C=C12 (centres undefined)	197 to 198
Cc1[nH]n(Cc2cccc(C(=O)O)c2)c2nc(-c3ccncc3)nc(=O)c1-2	> 300
O=C(c1ccc(OCCN2CCCC2)cc1)c1c(-c2ccc(O)cc2)sc2cc(O)ccc12	146 to 147
COc1ccc(-c2cc(=O)n(C)c(OC(C)C)n2)cc1OC	124 to 126
CCOCc1nc2c(N)nc3ccccc3c2n1CCC(N)=O	> 250
O=C(O)C(=O)c1ccc(OCC(=O)N2CCOCC2)cc1	182 to 184
CC1=C(O)C(=O)C(C)(C(O)Cc2ccccc2)O1 (centres undefined)	158 to 159

SMILES	melting point [°C]
COc1cc(Nc2c(C#N)cnc3cc(-c4ccc(C5OCCCO5)o4)ccc23)c(Cl)cc1Cl	224 to 229
CCc1noc(-c2cn(-c3ccc([N+](=O)[O-])cn3)cn2)n1	228 to 229
CC1=NC(NC(=O)Nc2cccc(Cl)c2)C(=O)N(CC(=O)N2CC3CCC(CC3)C2)c2c(C)cccc21 (centres undefined)	181 to 185
O=C(Nc1cccc(SC(F)(F)F)c1)c1ccc2ccccc2c1O	154
CC(=O)Nc1cc(Oc2ccc3c(C(=O)Nc4ccc(N5CCS(=O)(=O)CC5)c(C(F)(F)F)c4)cccc3c2)ncn1	280 to 287
COc1ccc(-c2ccc(-c3ccc(C(=O)O)cc3)cc2-c2ccc3c(c2)C(C)(C)CCC3(C)C)cc1	112 to 115
COc1ccc(-c2nc(Sc3cccc(OC)c3)[nH]c2-c2ccc(OC)cc2)cc1	101
COc1ccc(Cc2nc(C)c[nH]2)cc1	108 to 109
OC1CSC(Sc2ccccc2C(F)(F)F)C(O)C1O (centres undefined)	114 to 115
Cc1oc(-c2ccccc2)nc1C(=O)c1cc2cc(Br)ccc2o1	212 to 213
CC(C)(C#N)Cc1ccccc1CC(C)(C)C#N	76 to 80
CN1CC(CN2C(=O)c3ccccc3C2=O)CC2c3cc(C(C)(C)C)cc4[nH]cc(c34)CC21 (centres undefined)	132 to 137
CN1CCCCc2cc(-c3cnc(N)nc3N)ccc21	206 to 207
O=C(NC/C=C/c1ccccc1)c1ccccc1F	68
CCCCN(CCCC)CC(=O)N1c2ccccc2N(CCCC)C(=O)c2cnc(-c3ccccc3)nc21	103 to 104
O=S1(=O)CCN2CCN[C@H](c3ccc(Oc4ccccc4)cc3)C2=N1	124 to 125
Cn1nnnc1-c1cc(-c2ccc(F)cc2)sc1-c1ccc(F)cc1	175 to 176
COc1cc(Nc2nccc(Nc3ccc(OCc4ccccc4)cc3)n2)cc(OC)c1OC	161 to 164
Cc1cc2c(cc1C13CC1CCC3=O)C(C)(C)CCC2(C)C (centres undefined)	152 to 154
Nc1c(Br)cc(Br)cc1S(N)(=O)=O	165 to 169
CCCOc1cc(C(=O)O)cc(N)c1-c1ccccc1	101 to 102
C#CCSc1nnc(-c2cccs2)s1	71 to 73
Cc1ccc(CN2C(=O)c3cccc4cccc2c34)cc1	108 to 110
CCOc1nn2c(-c3ccccc3)nnc2c2ccccc12	172 to 173
COC(=O)c1ccc(-c2nc(-c3ccc(C(F)(F)F)cc3)co2)cc1	182 to 183

SMILES	melting point [°C]
COc1ccc(NC(=O)C23CC4CC(CC(C4)C2)C3)cc1	181 to 184
CCc1c([N+](=O)[O-])c(C(N)=O)nn1C1CN(CC)C1	177 to 179
O=C(O)CC1CCCC2CC(=O)NC12 (centres undefined)	238 to 240
C[C@H](Nc1ncnc2[nH]cnc12)c1oc2ccc(F)cc2c(=O)c1-c1cccc(F)c1	194 to 197
CCCC[C@H](CN(C=O)OCc1ccccc1)C(=O)N1CCC[C@H]1C(=O)Nc1ccc(F)cn1	98
CNC(=O)c1cc(Br)cc(-c2ccccc2)c1	132
O=C(N1CCCC(c2cccc3[nH]ccc23)C1)C(F)(F)F (centres undefined)	170
CC(C)(C)c1cc(-c2n[nH]c(=S)o2)cc(C(C)(C)C)c1O	254
O=C(Nc1cc2ccccc2cn1)c1cncnc1NCc1ccncc1	218 to 220
CCSCCC(=O)NCC(=O)N1Cc2ccccc2Oc2ccc(Cl)cc21	148 to 151
CCCc1nc(Cl)c(-c2ccc(C)cc2)c(NS(=O)(=O)c2ccc(C(C)(C)C)cc2)n1	138 to 139
CC(=O)C(=Cc1cc(O)c(O)c([N+](=O)[O-])c1)C(C)=O	175 to 178
O=C(NCC1Cc2cc(Br)cc3[nH]c(=O)c(=O)n1c23)c1ccccc1 (centres undefined)	180 to 182
CC(=O)CSc1ccc(S(C)(=O)=O)cc1	95 to 97
C[C@@H]1CCNC[C@@H]1N(C)c1ncnc2[nH]ccc12	158
CN(C)Cc1ccc2cc(NC(=O)c3ccc(-c4ccc(Cl)cc4)cc3)ccc2n1	219 to 221
CC(C)(/C=C/Br)C(=O)O	30
CC(=O)C(=Cc1cc([N+](=O)[O-])c(O)c([N+](=O)[O-])c1)C(C)=O	158
Cc1cc(C)c(NC(=O)CC23CC4CC(CC(C4)C2)C3)cc1C	158
COc1ccc2c(c1)S(=O)(=O)c1ccccc1C(=O)N2	244 to 246
COCOC1CCC2(C)C(=CCC3C2CCC2(C)C(CO)CCC32)C1 (centres undefined)	102 to 105
CCN1CCN(Cc2ccc(-c3cc4c(NCc5ccc(OC)nc5)ncnc4[nH]3)cc2)CC1	305
CN1CCN(c2nc3c(cc2F)c(=O)n(OCc2ccccc2)c(=O)n3C2CC2)CC1	188 to 189
CCC1c2nc[nH]c2CCN1C(=S)NC(C)C (centres undefined)	215
COc1cccc2c1CCc1c-2nc2ccccc2c1N	126 to 129

SMILES	melting point [°C]
Clc1cccc(Nc2ncnc3[nH]nc(NCc4ccccc4)c23)c1	214 to 217
CCn1c(=O)n(C)c(=O)c2c(C(=O)N3C[C@](C)(O)CO3)c(Cn3c(C)nc(Cl)c3Cl)sc21	130 to 133
Cc1ccc(-c2ccc(C(=O)Nc3cc4ncc(CN5CCCC5)cc4cc3C)cn2)cc1	214 to 218
CSc1nn(C)c(=O)n1Cc1cc(-c2ccccc2)ccc1C	95.6
c1ccc2c(c1)OCCN1CCOCCN(CCOCC1)CCO2	119 to 120
Oc1ccc(N2CCN(c3nncc4ccccc34)CC2)cc1	244 to 245
COc1ccc(-c2nc(Sc3ccc(C)cc3)[nH]c2-c2ccc(OC)cc2)cc1	181
COC(=O)c1cccc(-c2cccc(Oc3ccc(Cl)cc3Cl)n2)c1	112 to 113
CC(C)C1COC(c2ccccc2CO)=N1 (centres undefined)	62 to 72
COc1cc([N+](=O)[O-])ccc1S(=O)(=O)n1c(=O)n(-c2ccccc2)c2cc(Cl)ccc21	> 250
Clc1ccc2nc(-c3cccs3)c(I)n2n1	205 to 209
CC(C)(C)OC(=O)N1CCN(c2ccc3[nH]c(S)nc3c2)CC1	219 to 220
Cc1ccccc1NC(=O)CN1C[C@@H](C)N(S(=O)(=O)c2cccc([N+](=O)[O-])c2)[C@@H](C)C1	163 to 164
CCOc1nc(SC)nc(N2CCS(=O)CC2)c1[N+](=O)[O-]	102 to 104
CCCc1nc2c(N)nc3ccccc3c2n1CCCCCC(C)=O	161 to 163
C=CCOC1OC(C(O)CO)C(OCc2ccccc2)C1O (centres undefined)	84 to 85
O=C(NCCCCn1cncn1)c1sc2ccccc2c1Cl	103 to 105
CCOC(=O)c1nc(N)sc1-c1cn2ccc(C)cc2n1	278 to 280
O=C(C#CCN1C(=O)c2ccccc2C1=O)Nc1nnc(SCc2ccccc2)s1	128 to 131
O=C(O)CCCCCCCCNC(=O)C1Cc2ccccc2N1S(=O)(=O)c1ccc(-c2cccc(C(F)(F)F)c2)cc1 (centres undefined)	60
N#CC1(N2CCCC2)CCC2(CC1)OCCO2	65 to 67
CC(COc1ccc(CC(=O)O)cc1Cl)NCC(O)c1cccc(Cl)c1 (centres undefined)	188 to 192
O=C(NCc1ccc(F)cc1)c1cn(N2CCOCC2)c2ccc(CN3CCOCC3)cc2c1=O	165 to 167
Clc1c2ccccc2nc2c1cnn2C1CCCC1	97 to 98
